“And” between values parts separate entries of the source, which are not always exact repeats. Identical values can stand only once.
How the values were obtained:
ovine COX-1 = molecular target: T1, ovine COX-1 (Ovis aries, UniProt P05979); assay: COX Inhibitor Screening Assay, COX1; type: biochemical
T1 construct: purchased Cayman Chemical 560131
Description: The indicated concentration of these agents were tested in the presence of COX1. COX activity was quantified by measuring the amount of final product PGF2α which competed with acetylcholinesterase (AChE)-linked PGs for binding to its antibody immobilized to the surface of microplate wells. Color was developed by adding an AChE substrate and was inversely related to the amount of PGF2α±SD of triplicate determinations.
The prostanoid product can be quantified via enzyme immunoassay (EIA) using a broadly specific antibody that binds to all the major prostaglandin compounds. COX assays from Cayman Chemical, Ann Arbor, Mich., are more accurate and reliable than assays based on peroxidase inhibition. The Cayman COX Inhibitor Screening Assay includes both ovine COX-1 and human recombinant COX-2 enzymes in order to screen isozyme-specific inhibitors. This assay is an excellent tool which can be used for general inhibitor screening.
COX was assayed by measuring production of PGF2, generated by stannous chloride (SnCl2) in the presence of PGH2 using a commercial kit from Cayman Chemical, (Ovine COX Inhibitor Screening Assay, Catalog #560131). […]
A 96-well plate coated with mouse anti-rabbit IgG was then used and various components were added—assay standards, nonspecific binding controls, maximum binding controls, and the inhibitor dilutions—along with the tracer and antiserum. The plate was incubated at room temperature for 18 hours, washed five times with wash buffer, developed with Ellman's Reagent and the colored reaction product was read on an automatic microplate reader at 410 nm. The IC50 for the respective COX enzyme was graphically determined from a three-point curve. […]
The intensity of color was inversely proportional to the amount of free prostaglandins quantitatively representing the COX enzymatic activity, under the influence of the test compounds.
As noted, COX activity was quantified by measuring the amount of final product PGF2-α which competed with AChE-linked PGs for binding to an antibody immobilized to microplates. […]

NF-κB p65 = NF-κB p65 DNA-binding activity in DU145 cells (ELISA); type: cell-based, human; details: for DNA binding of p65, % of basal activity: 100 μM
Description: An ELISA kit (Pierce, Rockford, Ill.) was used to detect the active forms of NF-κB p65 by measuring its binding to a consensus DNA sequence. A primary antibody specific for p65 and a secondary horse-radish peroxidase (HRP)-conjugated antibody were used sequentially to produce immobilized p65-HRP complexes. A chemiluminescent substrate for HRP was added and the reaction read using the Fluoroskan Ascent FL plate reader
An ELISA kit (Pierce, Rockford, Ill.) was used to detect the active forms of NF-κB p65 by measuring its binding to a consensus DNA sequence. […] As controls, untreated cells were prepared under the same conditions. Cells were collected by scraping and incubated in ice-cold RIPA lysis buffer containing 1% NP40, 0.5% sodium deoxycholate, 0.1% SDS and protease inhibitor cocktail. After centrifugation, the supernatant was transferred to a streptavidin-coated 96-well plate. Active p65 in the sample binds to the immobilized DNA molecules.
To ensure the signal specificity, competitive DNA fragments containing a NF-κB binding site were used to prevent the binding of NF-κB to the consensus sequence. A primary antibody specific for p65 and a secondary HRP-conjugated antibody were added to each well sequentially, resulting in an immobilized p65-HRP complex. Unbound antibodies were washed away. A mixture of luminol/enhancer and peroxide solution was added into each well as a chemiluminescent substrate for HRP. The chemiluminescent signal, proportional to the relative amount of active p65 in the sample, was detected using the Fluoroskan Ascent FL plate reader (Thermo, Waltham, Mass.).
DNA sequences containing p65-binding site were immobilized to wells of 96-well plates, allowing activated p65 to bind. After washing, the amount of bound p65 was detected and quantified by the above method. The DNA-binding of active p65 was determined by the intensity of chemiluminescence produced by DNA-p65-HRP complex immobilized on well surfaces. The results represent the mean±SD of triplicate determinations. An inhibitor of p65 binding to DNA was added to confirm specificity. […]

[1] = system: normal human fibroblasts (MHRF); assay: MTT cytotoxicity, normal human fibroblasts; type: cell-based; details: for CD50 against MHRF: MTT
Description: As a first step, the antitumor activity of the tolans was assessed against a panel of three cancer cells lines that produce solid tumors upon implantation into animals. DU145 is an androgen-independent prostate cancer cells. T24 is a transitional cell bladder carcinoma cell. MDAH2274 (“MDAH) is an endometroid ovarian adenocarcinoma cell. To assess the selectivity of this antitumor activity, the toxicity of the tolans to normal human fibroblasts (MHRF) was examined. Subsequently, studies with Tolan-3 (KST-201) were expanded to test its action on a wide range of tumor cell lines.
Cell killing was evaluated using the colorimetric MTT assay. The assay measures the formation of a colored product from a chromogenic precursor, the tetrazole 3-[4,5-dimethylthiazol-2-yl]-2,5 diphenyltetrazolium bromide (MTT). The yellow MTT is reduced to purple formazan in the mitochondria of living cells. A solubilization solution (typically dimethyl sulfoxide or sodium dodecyl sulfate in dilute hydrochloric acid) is added to dissolve the insoluble purple formazan product into a colored solution. The absorbance of this colored solution is quantified by measuring at a certain wavelength (usually between 500 and 600 nm) by a spectrophotometer. The amount of purple formazan product generated is proportional to the number of viable cells (Mosmann, T., 1983, J. Immunol. Meth. 65:55-63; Wilson, A. P., Cytotoxicity and Viability Assays. In: Animal Cell Culture: A Practical Approach, 3rd ed. (Masters, J R W, ed.) Oxford University Press: Oxford, Vol. 1, pp. 175-219. 2000). This MTT assay is used widely to assess the cytotoxicity and selectivity of compounds such as anti-cancer drugs. The assay is suitable for rapid toxicity characterization of a test agent such as a drug formulation. […] A lower CD50 indicates a greater cytotoxic activity (as a lower amount of the agent is needed to achieve a fixed level of cytotoxicity). Two agents can be compared by examining the fold-increase or decrease in their CD50 values.

T1 sequence (P05979 25-600): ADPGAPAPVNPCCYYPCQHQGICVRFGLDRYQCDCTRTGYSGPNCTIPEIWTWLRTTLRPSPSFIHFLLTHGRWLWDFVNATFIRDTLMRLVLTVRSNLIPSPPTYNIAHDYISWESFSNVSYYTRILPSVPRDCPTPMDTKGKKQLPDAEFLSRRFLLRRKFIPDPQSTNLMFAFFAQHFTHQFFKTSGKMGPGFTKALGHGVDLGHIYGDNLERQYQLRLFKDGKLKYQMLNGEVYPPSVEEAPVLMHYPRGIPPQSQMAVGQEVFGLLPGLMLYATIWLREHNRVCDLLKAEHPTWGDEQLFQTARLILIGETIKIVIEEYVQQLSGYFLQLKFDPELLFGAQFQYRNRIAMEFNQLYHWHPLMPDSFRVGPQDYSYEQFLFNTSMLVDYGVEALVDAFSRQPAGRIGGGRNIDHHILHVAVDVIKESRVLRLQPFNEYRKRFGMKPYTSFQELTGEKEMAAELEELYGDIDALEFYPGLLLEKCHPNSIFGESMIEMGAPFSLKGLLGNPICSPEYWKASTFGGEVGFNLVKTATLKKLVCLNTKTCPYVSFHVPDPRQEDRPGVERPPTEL

Structure (SMILES) | Inhibition of COX1 activity (ovine COX-1; doses of 10 to 200 μM tested) | Reduction of DNA-binding activity of NF-κB by at least 50% (NF-κB p65; 12-hour treatment) | NF-κB inhibition compared with resveratrol (NF-κB p65; 24-hour treatment, 50 and 100 μM) | CD50 against MHRF ([1]; 2 days incubation) | CD50 against MHRF ([1]; 3 days incubation) | Fold less toxic to normal fibroblasts than resveratrol ([1]; Table 15 vs Table 14) | COX1 enzymatic activity (ovine COX-1; high end of 10 μM to 200 μM) | COX1 enzymatic activity, % of initial activity (ovine COX-1; low end of 10 μM to 200 μM) | DNA binding of p65, % of basal activity (NF-κB p65; 12 hours) | DNA binding of p65, % of basal activity (NF-κB p65; 24 hours) | DNA binding activity of p65, % of basal activity (NF-κB p65; 24-hour treatment at 5, 25 and 50 μM) | CD50 against MHRF ([1]; 1 day incubation) | CD50 against MHRF ([1]; 1 day incubation, listed as resveratrol) | CD50 against MHRF ([1]; 3 days incubation, listed as resveratrol)
Oc1ccc(C#Cc2ccc(O)cc2)cc1 [KST-201, 4,4′-dihydroxytolan] | about 50% | not sufficient to reduce DNA-binding activity of NF-κB | more effective inhibitor of NF-κB | 194.1 ± 9.60 µM | 153 µM and 153.2 ± 4.40 µM and 153 ± 4.4 µM | 3.5 fold |  |  |  |  |  |  |  | 
Oc1ccc(/C=C/c2cc(O)cc(O)c2)cc1 [Resveratrol, 3,5,4′-trihydroxy-trans-stilbene, reference compound] |  |  |  | 50.9 ± 0.6 µM | 44.3 ± 3.0 µM and 47 ± 6.0 µM |  | complete inhibition | 5% | 55.3% | 40.2% | ~80% | 154.8 ± 16.5 µM | 155 µM | 44 µM

From patent publication US8716355B2, “Hydroxylated tolans and related compounds in the treatment of a cancer” (Kent State University, priority 2007, dated 2014)
